In experiment [1] the target is T1, HDAC3 (Homo sapiens, UniProt O15379).
T1 construct: cDNAs corresponding to the full length human HDAC1, 2, 3 and 11 were cloned into pBlueBac4.5 vector; FLAG (C); made in house; host or cells: Sf-9 insect cells (baculovirus)
The experiment can be described thus: Fluorescence-based HDAC enzyme assay, recombinant HDAC3. As to conditions: recombinant human HDAC enzyme in vitro; read-out: IC50 (μM) HD3. Type of experiment: biochemical. The text has this: (§1) cDNAs of human HDAC1-8 and 11 were generated by RT-PCR reactions using primers complementary to the 5′ and 3′ coding sequence of human HDAC gene sequences in GenBank. cDNAs corresponding to the full length human HDAC1, 2, 3 and 11 were cloned into pBlueBac4.5 vector (Invitrogen). The constructs were used to generate recombinant baculoviruses using the Bac-N-Blue™ DNA according to the manufacturer's instructions (Invitrogen). The recombinant HDAC1, 2, 3, 11 proteins produced harbor a FLAG tag at their C-termini. cDNAs encoding truncated versions of HDAC4, 5 and 7 encompassing their deacetylase domains were cloned into pDEST10 as an N-terminal hexahistidine fusion protein and recombinant baculoviruses were generated using the Bac-to-Bac™ Baculovirus expression system (Invitrogen). HDAC6 and 8 were cloned as full length N-terminally His-tagged protein. All HDAC proteins were expressed in insect Sf-9 cells (Spodoptera frugiperdai) upon infection with recombinant baculovirus. HDAC1 enzyme was purified from the Q-sepharose FF column (Amersham Pharmacia Biotech, Baie d'Urfe QC, Canada) followed by an anti-FLAG immunoaffinity column (Sigma). HDAC2, 3 and 11 were purified using Flag-antibody immunoaffinity purification. HDAC4, 5, 6, 7 and 8 were purified using either Ni-NTA resin (QIAGEN Mississauga ON, Canada) or His-Select resin (Sigma) with step washes and elution with different concentrations of imidazole in Buffer containing 25 mM Tris (or NaPO4) pH 8.0, 10% glycerol and 150 mM or 500 mM NaCl.
Recombinant HDAC enzymes were incubated with diluted compounds in assay buffer (25 mM Hepes, pH 8.0, 137 mM NaCl, 1 mM MgCl2 and 2.7 mM KCl) for 10 minutes at ambient temperatures in black 96-well plate. Boc-Lys(Ac)-AMC (for HDAC1, 2, 3, 6, and 8 enzymes), which was purchased from Bachem Biosciences Inc., (King of Prussia, Philadelphia) were added into enzyme-compound mixture and incubated at 37° C. […] After 30 minutes, fluorescence was measured using a fluorometer (SPECTRAMAX GeminiXS, Molecular Devices, Sunnylvale, Calif.). […]

For experiment [2], the target named is T2, HDAC2 (Homo sapiens, UniProt Q92769).
T2 construct: cDNAs corresponding to the full length human HDAC1, 2, 3 and 11 were cloned into pBlueBac4.5 vector; FLAG (C); made in house; host or cells: Sf-9 insect cells (baculovirus)
Kind of experiment: Fluorescence-based HDAC enzyme assay, recombinant HDAC2. As to conditions: recombinant human HDAC enzyme in vitro; read-out: IC50 (μM) HD2. It is filed as biochemical.
Description: as §1, with “HDAC2, 3 and 11 were purified using Flag-antibody immunoaffinity purification.” left out
(§2) Boc-Lys(Ac)-AMC (for HDAC1, 2, 3, 6, and 8 enzymes), which was purchased from Bachem Biosciences Inc., (King of Prussia, Philadelphia) were added into enzyme-compound mixture and incubated at 37° C. For HDAC4, 5, 7 assays, Boc-Lys(TFA)-AMC, which was synthesized in house, was used as substrate and 0.1% BSA was added to the buffer. […] Reaction time was predetermined to ensure that reaction was linear for the incubation time. Reaction was stopped by adding a freshly prepared trypsin (1 mg/ml final concentration) with 1 μM TSA (Biomol) in assay buffer. After 30 minutes, fluorescence was measured using a fluorometer (SPECTRAMAX GeminiXS, Molecular Devices, Sunnylvale, Calif.).

Experiment [3] relates to recombinant human HDAC enzymes. Kind of experiment: HDAC isotype selectivity across recombinant HDAC enzymes. It is filed as biochemical. As to conditions: from Table 1.
Description: as §1, with “HDAC2, 3 and 11 were purified using Flag-antibody immunoaffinity purification.” left out
as §2

For experiment [4], the target named is T3, HDAC1 (Homo sapiens, UniProt Q13547).
T3 construct: cDNAs corresponding to the full length human HDAC1, 2, 3 and 11 were cloned into pBlueBac4.5 vector; FLAG (C); made in house; host or cells: Sf-9 insect cells (baculovirus)
Kind of experiment: Fluorescence-based HDAC enzyme assay, recombinant HDAC1. Type of experiment: biochemical. As to conditions: recombinant human HDAC enzyme in vitro; read-out: IC50 (μM) HD1.
Description: as §1, with “HDAC2, 3 and 11 were purified using Flag-antibody immunoaffinity purification.” left out
as §2

Experiment [5] has as its system tubulin acetylation in human bladder carcinoma T24 cells. The experiment can be described thus: Cell-based ELISA for tubulin acetylation. On the procedure: (§3) Bladder carcinoma T24 cells were seeded in black plates with clear bottoms (Costar #3603) at 1×10^4 cells per well in a volume of 100 μl per well, and were allowed to settle for one day at 37° C. in a CO2 incubator. The cells were treated for 16 h with various concentrations of HDAC inhibitors. 3 h before the end of the treatment, Alamar Blue (BioSource) was added to monitor cell viability according to the manufacturer's instructions. At the end of the treatment time, Alamar Blue OD (at 570 nm and 600 nm) was recorded, then the cells were carefully washed in PBS, fixed in pre-chilled methanol for 10 min at −20° C., washed again twice in PBS, and blocked in PBS containing 0.1% Triton X-100 and 1% BSA for a minimum of 30 min. For H3 acetylation, rabbit-anti-acetyl-H3 (Upstate #06-599) was used as primary antibody at a dilution of 1:1000 for 45 min; the secondary antibody was HRP-coupled goat-anti-rabbit (Sigma #A-0545), used at 1:8000 for 45 min. For tubulin acetylation, the primary antibody was mouse anti-acetyl-tubulin (Sigma #T-6793, 1:2000, 45 min) while the secondary was HRP-coupled goat-anti-mouse antibody (Sigma #A-2304, 1:8000, 45 min). All antibodies were diluted in blocking buffer, and the cells were washed in blocking buffer following each antibody incubation. […] The fluorescent signal for acetylation was normalized by dividing with the viability data obtained from Alamar Blue. EC50 was defined as the concentration of compound which gave a signal half-way between the basal (untreated) level and the maximum level generated by high doses of the HDAC pan-inhibitor NVP-LAQ-824.
In general terms: In an ELISA, binding on a coated surface is turned into a signal by an enzyme label.

The subject of experiment [6] is histone H3 acetylation in human bladder carcinoma T24 cells. Kind of experiment: Cell-based ELISA for H3 acetylation. The procedure:
as §3

Experiment [7] deals with VEGF expression in DU145 cells. The experiment can be described thus: VEGF transcription in Du145 cells in vitro. Type of experiment: cell-based, human. As to conditions: 24 hour treatment. The procedure: (§4) Human prostate cancer Du145 cells were exposed to Cpd A or SAHA (3 microM) for 24 hours. Total RNA was collected by Isogen (Nippongene, Tokyo, Japan) and reverse-transcribed to cDNA by ExScript® RT reagent Kit (TAKARA, Kyoto, Japan). The expression level of bFGF mRNA was detected by ABI7700 analyzer using probe/primer pre-mixture reagent (ABI, Cat# Hs00266645_m1, CA, USA) and TaqMan® Universal PCR Master Mix (ABI, Cat# 430-4437) as described in the ABI's protocol. The expression level of VEGF mRNA was detected in a similar manner using the appropriate probe/primer reagents.

In experiment [8] the test system is TSP-1 expression in cancer cells (Du145, H460, A549). Kind of experiment: TSP-1 transcription in cancer cells in vitro. Type of experiment: cell-based, human. As to conditions: over time, 3 microM, 24 hours. On the procedure:
Cells were exposed by Cpd A or SAHA (3 microM) for 24 hours. Total RNA was collected by Isogen (Nippongene, Tokyo, Japan) and reverse-transcribed to cDNA by ExScript® RT reagent Kit (TAKARA, Kyoto, Japan). The expression level of TSP-1 mRNA was detected by ABI7700 analyzer using a probe/primer pre-mixture reagent (ABI, Cat#, CA, USA) and TaqMan® Universal PCR Master Mix (ABI, Cat# 430-4437) as described in the ABI's protocol.

The test system of experiment [9] is bFGF transcription in human prostate cancer Du145 cells. The experiment can be described thus: bFGF transcription in Du145 cells in vitro. It is filed as cell-based. As to conditions: 3 μM, 24 hour treatment. On the procedure: as §4
The test system of experiment [10] is human H460 non-small cell lung tumor, Du145 prostate tumor, TSU-Pr1 prostate tumor, and AZ521 gastric tumor xenograft. Kind of experiment: Xenograft combination studies with taxol (Example 15). As to conditions: oral administration, nude mice with human lung, prostate and gastric tumors. It is filed as in vivo, mouse. The procedure:
(§5) Antitumor studies were done using human H460 non-small cell lung tumor, Du145 prostate tumor, TSU-Pr1 prostate tumor, and AZ521 gastric tumor xenograft model in male BALBc/A nude mice (from Japan Crea Inc., Japan). Male nude mice were used at age 8-10 weeks. Human carcinoma cells were injected subcutaneously in the animal flank and allowed to form solid tumors. Tumor fragments (about 2 mm^3 fragments) were then removed and implanted subcutaneously through a small surgical incision to the right flank of other animals. […] Tumor volumes and gross body weight of animals were monitored twice weekly for up to 2 weeks for AZ-521 and TSU-Pr1, or 4 weeks for H460 and Du145 xenografts. Each experimental group contained 6 animals.
Background: A xenograft is tissue or cells of one species grown in another, often human tumour cells in immunodeficient mice.

Experiment [11] relates to H460 (NSCLC) xenografts. Kind of experiment: H460 (NSCLC) xenograft, oral HDAC inhibitor with taxol. Type of experiment: in vivo, mouse. As to conditions: Compound A 100 mg/kg or SAHA 120 mg/kg with taxol 60 mg/kg. The procedure: as §5
Experiment [12] has as its system mouse endothelial MS-1 cells. Kind of experiment: Growth inhibition of MS-1 cells by taxol with recombinant TSP-1. It is filed as cell-based. As to conditions: recombinant TSP1 10 ug/ml, 72 hour. On the procedure: Mouse endothelial MS-1 cells were seeded into 96 well-plate and incubated in 5% CO2 incubator for 24 hours. Taxol at various concentrations was added into cell culture and 6 hours later media were replaced with fresh media containing recombinant TSP1 (10 ug/ml) but without taxol. After 72 hour incubation, the growth inhibitory effect was determined by crystal violet staining.

Bounds are passed on as bounds.

Usually IC50 stands for the midpoint of a concentration-inhibition curve.

T3 sequence (Q13547 whole entry): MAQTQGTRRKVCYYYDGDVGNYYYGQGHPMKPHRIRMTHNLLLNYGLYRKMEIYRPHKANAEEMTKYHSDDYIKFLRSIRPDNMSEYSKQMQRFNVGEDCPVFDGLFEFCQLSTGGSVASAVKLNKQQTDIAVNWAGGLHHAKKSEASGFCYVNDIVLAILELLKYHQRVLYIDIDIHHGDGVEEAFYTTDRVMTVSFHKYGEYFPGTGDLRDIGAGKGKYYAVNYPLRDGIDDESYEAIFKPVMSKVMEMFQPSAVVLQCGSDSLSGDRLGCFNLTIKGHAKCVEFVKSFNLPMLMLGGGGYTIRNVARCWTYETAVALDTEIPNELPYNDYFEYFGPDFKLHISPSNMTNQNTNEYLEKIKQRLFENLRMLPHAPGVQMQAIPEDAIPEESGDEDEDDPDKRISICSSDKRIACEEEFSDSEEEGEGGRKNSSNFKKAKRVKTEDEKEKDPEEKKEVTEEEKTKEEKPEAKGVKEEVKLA
T2 sequence (Q92769 whole entry): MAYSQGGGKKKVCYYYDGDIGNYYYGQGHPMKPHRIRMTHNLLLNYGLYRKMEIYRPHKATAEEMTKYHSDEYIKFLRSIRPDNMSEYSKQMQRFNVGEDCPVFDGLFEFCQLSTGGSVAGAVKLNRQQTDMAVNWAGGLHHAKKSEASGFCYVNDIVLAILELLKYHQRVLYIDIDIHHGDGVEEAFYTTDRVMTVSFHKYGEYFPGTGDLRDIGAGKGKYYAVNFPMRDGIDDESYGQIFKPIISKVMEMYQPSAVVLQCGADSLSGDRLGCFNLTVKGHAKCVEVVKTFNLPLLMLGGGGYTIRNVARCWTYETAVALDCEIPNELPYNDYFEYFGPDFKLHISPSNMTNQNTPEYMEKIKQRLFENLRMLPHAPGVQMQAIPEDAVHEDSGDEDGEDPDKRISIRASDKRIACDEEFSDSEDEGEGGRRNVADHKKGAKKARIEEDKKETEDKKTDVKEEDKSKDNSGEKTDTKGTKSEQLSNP
T1 sequence (O15379 whole entry): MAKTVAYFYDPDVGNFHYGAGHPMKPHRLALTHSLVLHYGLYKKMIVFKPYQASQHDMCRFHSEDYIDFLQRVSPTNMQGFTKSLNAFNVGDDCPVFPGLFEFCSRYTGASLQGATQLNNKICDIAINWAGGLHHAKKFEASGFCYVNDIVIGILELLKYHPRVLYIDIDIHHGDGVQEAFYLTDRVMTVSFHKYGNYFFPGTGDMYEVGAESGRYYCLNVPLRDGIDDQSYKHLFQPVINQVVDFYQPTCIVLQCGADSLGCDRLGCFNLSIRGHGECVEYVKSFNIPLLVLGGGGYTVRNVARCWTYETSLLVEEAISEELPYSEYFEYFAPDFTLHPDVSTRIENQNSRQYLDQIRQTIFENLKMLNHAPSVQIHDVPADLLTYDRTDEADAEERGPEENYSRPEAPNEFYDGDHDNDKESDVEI

In the case of `O=C(Nc1ccccc1)c1ccc(CNc2nccc(-c3cccnc3)n2)cc1` [Compound C], the IC50 in experiment [1], in experiment [2] and in [4] was more than 10 µM throughout. Moreover, the HDAC isotype selectivity entry in experiment [3] is “inactive”.

For the compound `O=C(/C=C/c1ccc(CN(CCO)CCc2c[nH]c3ccccc23)cc1)NO` [NVP-LAQ824], the tubulin acetylation result in experiment [5] is listed as “Nonselective effect”. In addition, in experiment [6], the “histone H3 acetylation” value was “Nonselective effect”.

As to `O=C(CCCCCCC(=O)Nc1ccccc1)NO` [SAHA, reference compound], the VEGF expression result in experiment [7] is “Reduction”. Moreover, the tubulin acetylation result in experiment [5] is recorded as “Nonselective effect”. In [8], the TSP-1 expression result is “Induction”. Further, in [9], the bFGF transcription entry is recorded as “Reduction”. Besides, the “histone H3 acetylation” value in experiment [6] was “Nonselective effect”. Moreover, the “antitumor activity of taxol” value in experiment [10] is recorded as “Potentiation”. For the same compound, the “tumor response to combination therapy with taxol” value in [11] is “tumor regression”.

“Recombinant TSP-1: recombinant thrombospondin-1, agonist of TSP1 receptor”: the “proapoptotic effect of taxol” value in experiment [12] is listed as “Potentiates”.

The values are drawn from US20090124631A1, “Combination Therapy” (priority 2007, published 2009).
